Assay results from ChEMBL document CHEMBL5465560, “Selectivity Literature for EUbOPEN Chemogenomic Library” (2024).
One block for each compound: values may come before it.

Columns and labels:
[1] = target: T1, Ephrin type-B receptor 2 (Homo sapiens) (UniProt P29323); details: at 10 µM
T1 sequence (whole entry): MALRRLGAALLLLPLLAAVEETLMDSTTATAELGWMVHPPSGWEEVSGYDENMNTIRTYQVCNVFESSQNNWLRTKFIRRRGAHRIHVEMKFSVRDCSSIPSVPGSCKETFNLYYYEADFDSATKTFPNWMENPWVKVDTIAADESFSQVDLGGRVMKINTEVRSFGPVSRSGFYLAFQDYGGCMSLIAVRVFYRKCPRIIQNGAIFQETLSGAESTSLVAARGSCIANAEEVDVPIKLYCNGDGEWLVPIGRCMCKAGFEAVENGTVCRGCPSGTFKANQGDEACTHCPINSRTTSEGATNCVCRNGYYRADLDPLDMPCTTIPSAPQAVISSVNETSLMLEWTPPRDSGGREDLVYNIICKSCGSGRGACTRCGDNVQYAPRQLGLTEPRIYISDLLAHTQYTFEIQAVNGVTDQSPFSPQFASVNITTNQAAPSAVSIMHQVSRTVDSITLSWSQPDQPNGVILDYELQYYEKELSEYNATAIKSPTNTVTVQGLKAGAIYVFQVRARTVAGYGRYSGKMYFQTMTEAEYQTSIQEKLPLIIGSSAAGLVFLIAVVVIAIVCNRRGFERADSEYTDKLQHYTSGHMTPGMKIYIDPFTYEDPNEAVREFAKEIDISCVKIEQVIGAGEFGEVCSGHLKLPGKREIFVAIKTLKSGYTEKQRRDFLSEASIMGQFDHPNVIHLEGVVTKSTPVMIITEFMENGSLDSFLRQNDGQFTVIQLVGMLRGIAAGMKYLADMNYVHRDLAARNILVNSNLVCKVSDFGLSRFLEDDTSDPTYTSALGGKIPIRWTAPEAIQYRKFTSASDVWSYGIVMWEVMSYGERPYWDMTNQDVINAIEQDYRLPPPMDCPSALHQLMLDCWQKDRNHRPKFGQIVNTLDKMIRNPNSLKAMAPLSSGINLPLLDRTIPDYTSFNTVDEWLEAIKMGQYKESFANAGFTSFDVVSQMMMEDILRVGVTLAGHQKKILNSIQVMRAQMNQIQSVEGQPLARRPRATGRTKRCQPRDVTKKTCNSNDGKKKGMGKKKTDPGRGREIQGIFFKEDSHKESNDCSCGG

[2] = target: T2, Ephrin type-A receptor 8 (Homo sapiens) (UniProt P29322); test: Selectivity interaction (KinomeScan (DiscoverX)) EUB0001049a EPHA8; details: at 1 µM
T2 sequence (whole entry): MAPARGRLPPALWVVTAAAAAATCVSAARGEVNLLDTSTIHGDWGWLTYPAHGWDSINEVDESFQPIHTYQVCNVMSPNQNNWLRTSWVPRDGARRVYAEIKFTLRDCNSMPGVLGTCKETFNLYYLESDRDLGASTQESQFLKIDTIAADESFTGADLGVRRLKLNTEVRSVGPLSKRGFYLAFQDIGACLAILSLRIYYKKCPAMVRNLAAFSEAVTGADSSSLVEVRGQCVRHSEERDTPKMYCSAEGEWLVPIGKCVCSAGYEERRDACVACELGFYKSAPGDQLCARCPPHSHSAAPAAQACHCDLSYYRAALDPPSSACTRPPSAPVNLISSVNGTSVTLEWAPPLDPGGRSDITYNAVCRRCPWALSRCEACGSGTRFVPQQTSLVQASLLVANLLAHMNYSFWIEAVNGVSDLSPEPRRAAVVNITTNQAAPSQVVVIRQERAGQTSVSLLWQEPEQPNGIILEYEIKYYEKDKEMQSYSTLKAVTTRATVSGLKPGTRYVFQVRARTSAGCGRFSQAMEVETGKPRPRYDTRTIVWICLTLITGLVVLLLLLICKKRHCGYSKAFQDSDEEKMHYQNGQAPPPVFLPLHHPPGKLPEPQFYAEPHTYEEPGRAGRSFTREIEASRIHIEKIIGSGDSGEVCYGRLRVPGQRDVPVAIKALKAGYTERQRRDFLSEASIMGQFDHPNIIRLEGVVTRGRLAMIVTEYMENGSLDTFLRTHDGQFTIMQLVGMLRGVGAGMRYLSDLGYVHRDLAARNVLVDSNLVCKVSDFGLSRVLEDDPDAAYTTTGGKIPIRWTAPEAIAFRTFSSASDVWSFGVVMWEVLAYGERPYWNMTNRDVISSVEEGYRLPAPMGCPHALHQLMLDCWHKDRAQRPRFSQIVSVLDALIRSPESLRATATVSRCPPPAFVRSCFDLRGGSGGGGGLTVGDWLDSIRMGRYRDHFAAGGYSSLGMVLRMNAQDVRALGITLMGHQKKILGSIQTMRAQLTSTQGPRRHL

[3] = target: Mitogen-activated protein kinase 9 (Homo sapiens, UniProt P45984); test: Selectivity interaction (Ambit KINOMEscan and KiNATiv profiling in Jurkat cells) EUB0000090b MAPK9; assay type: cell-based; details: at 1 µM
Mitogen-activated protein kinase 9, sequence (P45984 whole entry, looked up): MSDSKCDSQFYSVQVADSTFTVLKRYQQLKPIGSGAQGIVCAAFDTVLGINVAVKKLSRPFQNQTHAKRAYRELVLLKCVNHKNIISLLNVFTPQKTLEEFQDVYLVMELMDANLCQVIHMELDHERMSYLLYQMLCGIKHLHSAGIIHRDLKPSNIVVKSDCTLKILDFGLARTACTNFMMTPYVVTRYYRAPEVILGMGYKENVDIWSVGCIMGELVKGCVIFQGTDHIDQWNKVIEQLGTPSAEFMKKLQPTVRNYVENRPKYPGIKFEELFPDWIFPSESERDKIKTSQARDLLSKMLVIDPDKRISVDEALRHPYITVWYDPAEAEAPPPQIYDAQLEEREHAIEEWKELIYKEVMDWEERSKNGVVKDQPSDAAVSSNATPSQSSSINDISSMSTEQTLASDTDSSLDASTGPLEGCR

[4] = target: Tyrosine-protein kinase Fyn (Homo sapiens) (UniProt P06241); test: Selectivity interaction (KinomeScan (DiscoverX)) EUB0001079a FYN; details: at 1 µM
Tyrosine-protein kinase Fyn (Homo sapiens), sequence (P06241 2-537 limits assumed): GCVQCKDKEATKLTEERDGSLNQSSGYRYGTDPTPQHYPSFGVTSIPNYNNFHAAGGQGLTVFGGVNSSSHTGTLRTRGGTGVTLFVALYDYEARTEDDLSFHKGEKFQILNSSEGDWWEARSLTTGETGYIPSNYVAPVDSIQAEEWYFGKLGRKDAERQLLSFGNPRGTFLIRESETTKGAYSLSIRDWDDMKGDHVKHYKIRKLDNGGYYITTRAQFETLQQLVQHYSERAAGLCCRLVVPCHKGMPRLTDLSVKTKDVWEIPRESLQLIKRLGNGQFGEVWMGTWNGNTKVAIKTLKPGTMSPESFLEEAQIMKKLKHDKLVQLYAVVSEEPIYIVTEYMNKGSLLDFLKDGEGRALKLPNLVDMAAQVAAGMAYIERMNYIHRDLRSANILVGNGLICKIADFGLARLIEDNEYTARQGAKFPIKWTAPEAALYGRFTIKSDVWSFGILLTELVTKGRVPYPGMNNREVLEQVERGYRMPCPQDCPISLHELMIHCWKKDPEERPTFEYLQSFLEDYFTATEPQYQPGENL

[5] = target: Serine/threonine-protein kinase N1 (Homo sapiens, UniProt Q16512); test: Selectivity interaction (KinomeScan (DiscoverX)) EUB0000618a PKN1; details: at 10 µM
Serine/threonine-protein kinase N1, sequence (Q16512 2-942 limits assumed): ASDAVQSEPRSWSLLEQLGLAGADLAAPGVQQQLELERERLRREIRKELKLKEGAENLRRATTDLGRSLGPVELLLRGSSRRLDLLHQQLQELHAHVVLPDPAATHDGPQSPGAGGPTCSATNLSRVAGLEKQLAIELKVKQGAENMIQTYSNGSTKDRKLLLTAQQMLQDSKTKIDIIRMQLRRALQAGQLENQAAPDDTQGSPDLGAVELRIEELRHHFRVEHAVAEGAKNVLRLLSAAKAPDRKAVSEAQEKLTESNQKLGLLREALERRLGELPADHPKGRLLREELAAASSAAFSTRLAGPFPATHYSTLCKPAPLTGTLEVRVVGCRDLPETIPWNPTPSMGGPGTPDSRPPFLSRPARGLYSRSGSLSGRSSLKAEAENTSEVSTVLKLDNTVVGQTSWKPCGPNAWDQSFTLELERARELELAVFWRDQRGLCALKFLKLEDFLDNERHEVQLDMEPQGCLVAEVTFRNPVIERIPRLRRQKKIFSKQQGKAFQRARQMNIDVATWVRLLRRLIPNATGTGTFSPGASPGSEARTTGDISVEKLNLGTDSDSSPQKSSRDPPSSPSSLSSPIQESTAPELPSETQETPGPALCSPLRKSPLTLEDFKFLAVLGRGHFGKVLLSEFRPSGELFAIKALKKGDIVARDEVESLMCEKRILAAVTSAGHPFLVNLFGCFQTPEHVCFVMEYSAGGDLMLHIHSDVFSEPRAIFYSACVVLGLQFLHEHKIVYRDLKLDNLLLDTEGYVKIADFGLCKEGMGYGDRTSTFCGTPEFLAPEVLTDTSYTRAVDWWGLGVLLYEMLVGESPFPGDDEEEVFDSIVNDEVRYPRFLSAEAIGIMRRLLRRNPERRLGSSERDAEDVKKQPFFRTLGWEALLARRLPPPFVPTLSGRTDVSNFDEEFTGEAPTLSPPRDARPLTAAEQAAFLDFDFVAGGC

[6] = target: Mitogen-activated protein kinase 11 (Homo sapiens) (UniProt Q15759); test: Selectivity interaction (KinomeScan (DiscoverX)) EUB0001619a MAPK11; details: at 1 µM
Mitogen-activated protein kinase 11 (Homo sapiens), sequence (Q15759 whole entry): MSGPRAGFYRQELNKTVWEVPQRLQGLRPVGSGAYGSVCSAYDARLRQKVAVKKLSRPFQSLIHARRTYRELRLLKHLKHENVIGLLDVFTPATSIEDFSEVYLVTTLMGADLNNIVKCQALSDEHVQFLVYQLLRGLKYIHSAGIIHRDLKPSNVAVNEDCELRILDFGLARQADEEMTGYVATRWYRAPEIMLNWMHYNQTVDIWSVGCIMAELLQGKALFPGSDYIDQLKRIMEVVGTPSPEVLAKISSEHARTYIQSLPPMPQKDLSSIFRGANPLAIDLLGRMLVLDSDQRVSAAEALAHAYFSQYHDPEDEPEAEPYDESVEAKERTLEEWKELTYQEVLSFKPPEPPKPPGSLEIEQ

% of control [1]: 100%
SMILES: CCN(CC)CCCCNc1ncc2cc(-c3cc(OC)cc(OC)c3)c(NC(=O)NC(C)(C)C)nc2n1

SMILES: COc1cc(Nc2nc(C)cc(-c3cnn4nc(OC)ccc34)n2)cc(C(F)(F)F)c1
% of control [2]: 81%

SMILES: CN(C)C/C=C/C(=O)Nc1ccc(C(=O)N2CCCC(Nc3ncc(Cl)c(-c4c[nH]c5ccccc45)n3)C2)cc1 (stereo unspecified)
% of control [3]: 0.55%

SMILES: Nc1cnc(N2CCc3cc(S(=O)(=O)Nc4c(F)cc(Cl)cc4F)cc(N4CCCC4=O)c32)nc1 [TP-020n]
% of control [4]: 58%

SMILES: O[C@H]1CC[C@H](Nc2ncc3nc(Nc4c(F)cc(F)cc4F)n([C@H]4CCOC4)c3n2)CC1
% of control [5]: 91%

SMILES: N#Cc1cccc(-c2c[nH]c3ncnc(N4CCOCC4)c23)c1
% of control [6]: 100%
